Data on two compounds can be found in US8822541B2, “Use of targeted nitroxide agents in mitigating or treating radiation injury” (University of Pittsburgh—Of the Commonwealth System of …, priority 2008, dated 2014).

Where “and” joins values, the source holds several entries; their conditions need not be identical. Equal values may be shown once.

For one series, the system named is 32D cl 3 cells. In words: EPR-based analysis of nitroxide distribution and partitioning in subcellular fractions. It is filed as cell-based, mouse. To be noted: 10 μM, 1 h. As to the method:
To determine nitroxide partitioning and distribution in subcellular compartments, electron paramagnetic resonance (EPR) was utilized. 32D cl 3 cells were incubated for 24 h under pelleted or flask growth conditions. After incubation, 150×10^6 cells were resuspended at a concentration of 10×10^6 cells/mL and were treated with 10 μM JP4-039 or 10 μM TEMPO for 1 h (Wipf P, et al., Mitochondrial targeting of selective electron scavengers: synthesis and biological analysis of hemigramicidin-TEMPO conjugates. J Am Chem. Soc. 127: 12460-12461, 2005).
Subcellular compartments were isolated by differential centrifugation. Cells were centrifuged at 1500 RPM for 10 min and the supernatant (media) was removed. The remaining whole cell pellet was washed with cold PBS, resuspended in 0.3 mL of hypotonic buffer solution, and incubated on ice for 45 min. Cells were then lysed by three rapid freeze-thaw cycles in liquid nitrogen for 30 sec and water at 25° C. for 3 min. Lysed cells were centrifuged at 3000×g for 5 min to isolate nucleus and cellular debris. Supernatant was centrifuged at 12000×g for 45 min to isolate mitochondria from cytoplasm (Wipf P, et al., Mitochondrial targeting of selective electron scavengers: synthesis and biological analysis of hemigramicidin-TEMPO conjugates. J Am Chem. Soc. 127: 12460-12461, 2005).
Each cellular fraction (media, whole cell pellet, nucleus/cellular debris, mitochondria, and cytoplasm) was mixed with DMSO (1:1 vol/vol) and 2 mM of potassium ferricyanide (K3Fe(CN)6) to convert […] to EPR-detectable radical forms (Behringer W, et al., Antioxidant Tempol enhances hypothermic cerebral preservation during prolonged cardiac arrest in dogs. J Cereb Blood Flow Metab. 22: 105-117, 2002). 70 μL of the homogenate was loaded into Teflon tubing (0.8 mm internal diameter) (Alpha Wire Corp., Elizabeth, N.J.) which was folded in half and placed into an open ESR quartz tube (inner diameter of 3.0 mm). EPR measurements were made in triplicate using a JEOL-RE1X EPR spectrometer (Jeol, Tokyo, Japan) under the following conditions: 334.7 mT center field, 5 mT sweep width, 0.079 mT field modulation, 20 mW microwave power, 0.1 sec time constant, and 2 min scan time at 22.5° C. Utilizing signal magnitude and isolated volumes, amount and concentration of JP4-039 or TEMPO were calculated for each sample.

The next series concerns rat ileal mucosa. The series can be described thus: Intestinal mucosal permeability assay (FD4) after hemorrhagic shock. The series is classed as in vivo. To be noted: intraluminal. As to the method: Intestinal mucosal permeability assay. Animals were allowed access to water but not food for 24 h prior to the experiment in order to decrease the volume of intestinal contents. The rats were instrumented as described above. A midline laparotomy was performed and the small intestine was exteriorized from the duodenojejunal junction to the ileocecal valve. A small incision was made on the antimesenteric aspect of the proximal small intestine and saline solution (1.5 ml) was injected. The bowel was ligated proximally and distally to the incision with 4-0 silk (Look, Reading, Pa.).
The small intestine was compressed gently in aboral direction along its length to displace intestinal contents into the colon. Starting 5 cm from the ileocecal valve, the ileum was partitioned into six contiguous water-tight segments. […]
The remaining four other segments were injected with solutions containing either 4-hydroxy-2,2,6,6-tetramethylpiperidine-N-oxyl (TEMPOL) or one of the Gramicidin S-based compounds. Four different final concentrations of TEMPOL in normal saline were evaluated: 0.1, 1, 5 and 20 mM. […]
Fluorescence of FD4 in the solution inside the beaker and within each gut sac was measured using a fluorescence spectrophotometer (LS-50, Perkin-Elmer, Palo Alto, Calif.) at an excitation wavelength of 492 nm and an emission wavelength of 515 nm. […]

For the compound `CC(C)C[C@@H](/C=C/CC(=O)NC1CC(C)(C)N([O])C(C)(C)C1)NC(=O)OC(C)(C)C` [JP4-039, TEMPO-4-yl-(S,E)-5-(tert-butoxycarbonylamino)-7-methyloct-3-enamide], in the series on 32D cl 3 cells (exponential growth), the “cellular EPR signal detected in mitochondria” value is 5.0±0.3%; the “cellular EPR signal in nucleus and/or cellular debris” value came to 37.2±0.3%; the “cellular EPR signal in the cytoplasm” value was found to be 19.4±1.6%; the “concentration in the nucleus and cellular debris” value was determined as 10.1 ± 0.1 µM. Further, in the series with 32D cl 3 cells (exponential growth), the “concentration in the whole cell pellet” value came to 12.6 ± 0.2 µM and the mitochondrial concentration was determined as 8.5 ± 0.5 µM. In addition, in the series on 32D cl 3 cells (pelleted cells), the “cellular EPR signal in nucleus and/or cellular debris” value amounted to 33.2±3.8%; the “cellular EPR signal in the cytoplasm” value was 29.5±0.7%; the “cellular EPR signal localized to the mitochondria” value is 3.9±0.2%; the mitochondrial concentration is 10.90 ± 0.48 µM and 10.9 µM.
As for `CC(C)C[C@@H](/C=C/[C@H](Cc1ccccc1)C(=O)N1CCC[C@H]1C(=O)N[C@H](C(=O)N[C@@H](CCCNC(=O)OCc1ccccc1)C(=O)NC1CC(C)(C)N([O])C(C)(C)C1)C(C)C)NC(=O)OC(C)(C)C` [XJB-5-131], in the series on rat ileal mucosa, the “hemorrhagic shock-induced mucosal hyperpermeability relative to control” value is “approximately 60 % of the control value” and the “potency relative to TEMPOL” value is given as about 1000 fold.
